Test results: patent publication US12440440B2, “Dry powder esketamine composition for use in the treatment of bipolar depression by pulmonary administration” (Novohale Therapeutics, LLC, priority 2017, dated 2025)
Structures can show the parent of a compound that is named as a salt.

Columns and labels:
[1] = in vivo; cited from earlier work
[2] = cited from earlier work
[3] = cited from earlier work; remark: listed apart in the source
[4] = nebulized saline solution, inhalation; cited from earlier work
NMDA receptor = conditions: cited from earlier work
[5] = 40-minute i.v. infusion of 0.20 mg/kg or 0.40 mg/kg, TRD patients; cited from earlier work
[6] = Predicted esketamine plasma concentration for 0.20 mg/kg 40 minutes intravenous infusion; assay type: in vivo; conditions: human, 0.2 mg/kg, predicted on the basis of literature data
Protocol: The aim of the study was to determine the amount of puffs needed to obtain plasma concentration similar to that sufficient to achieve antidepressant effect as for 0.20 mg/kg 40 minutes intravenous infusion. It can be predicted on the basis of literature data that this corresponds to concentration at 40 min of infusion between about 60 to 100 ng/ml. It was also the aim to determine the number of puffs that allow to avoid a sharp peak of plasma concentration that is considered an important factor inducing adverse psychomimetic and dissociative effects.

[7] = i.v. infusion of racemic ketamine
[8] = oral administration of ketamine

Structure (SMILES): CNC1(c2ccccc2Cl)CCCCC1=O (racemic) [ketamine]
- proportion of patients with treatment-resistant depression responsive to treatment [1]: about ⅔
- half-period of concentration fall ([2]; after i.v. infusion 0.5 mg/kg for 40 minutes): below 2 hours
- systemic concentration of parent drug ([2]; i.v. infusion 0.5 mg/kg for 40 minutes, maintained for about 40 minutes): about 200 ng/ml
- bioavailability ([3]; orally administered): 16-20%

Structure (SMILES): CN[C@]1(c2ccccc2Cl)CCCCC1=O [esketamine hydrochloride]
- inhaled bioavailability [4]: reduced

Structure (SMILES): NC1(c2ccccc2Cl)CCCCC1=O (stereo not drawn) [norketamine]
- activity on NMDA receptor relative to ketamine (NMDA receptor): many times less active than ketamine
- maximum concentration as level of ketamine concentration [2, 7]: 10-20%
- percentage of AUC norketamine to ketamine [2, 7]: 20-40%
- AUC for norketamine relative to ketamine [3, 8]: exceeding 1000%
- norketamine level relative to ketamine level [3, 8]: 500-1000%

Structure (SMILES): CN[C@]1(c2ccccc2Cl)CCCCC1=O [esketamine]
- antidepressant effects [5]: rapid onset of robust antidepressant effects
- concentration at 40 min [6]: 60 to 100 ng/mL
